Measurements from ChEMBL document CHEMBL1201862, “PubChem BioAssay data set” (2004).
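These data come from cells grown in 96-well plates and exposed to compound for 48 hours at five concentrations. At the GI50, growth is halved.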 Active and inactive are the calls of the source. Rule as the data show it: active = GI50 up to about 1.1 µM and inactive = higher.

Tests used:
Assay in all cases: inhibition of tumour cell growth, NCI panel, 48 h
786-0 = system: 786-0
A498 = system: A498
ACHN = system: ACHN
BT-549 = system: BT-549
CAKI-1 = system: CAKI-1
HCT-116 = system: HCT-116
HCT-15 = system: HCT-15
IGROV-1 = system: IGROV-1
MDA-MB-231 = system: MDA-MB-231
MOLT-4 = system: MOLT-4
NCI/ADR-RES = system: NCI/ADR-RES
SF-268 = system: SF-268
SK-MEL-5 = system: SK-MEL-5
SNB-75 = system: SNB-75
SR = system: SR
SW-620 = system: SW-620
T47D = system: T47D
TK-10 = system: TK-10
UACC-257 = system: UACC-257
UACC-62 = system: UACC-62

Measured: GI50

Cc1cc2c(cc1C)[n+]([O-])c(C(F)(F)F)c(C(=O)c1ccccc1)[n+]2[O-]
3.24 µM: HCT-15
active: CAKI-1 0.76 µM | SR 0.527 µM | T47D 0.724 µM
inactive: 786-0 3.47 µM | A498 4.44 µM | ACHN 2.39 µM | BT-549 5.35 µM | HCT-116 2.24 µM | IGROV-1 1.37 µM | MDA-MB-231 2.3 µM | MOLT-4 1.69 µM | NCI/ADR-RES 2.49 µM | SF-268 1.91 µM | SK-MEL-5 1.73 µM | SNB-75 3.32 µM | SW-620 3.72 µM | TK-10 3.3 µM | UACC-257 3.02 µM | UACC-62 2.22 µM

CCCCCCCCCCCCCCCCCCOCC(O)COP(=O)(O)OCC1OC(n2cc(F)c(=O)[nH]c2=O)CC1O (stereo not given)
active: ACHN 0.38 µM | SF-268 0.236 µM | SR 0.533 µM | UACC-62 0.579 µM
10.8 µM: HCT-15
inactive: 786-0 1.22 µM | A498 2.66 µM | BT-549 13.7 µM | CAKI-1 2.16 µM | HCT-116 1.29 µM | IGROV-1 11.4 µM | MDA-MB-231 19.1 µM | MOLT-4 3.02 µM | NCI/ADR-RES 2.05 µM | SK-MEL-5 4.01 µM | SNB-75 2.89 µM | SW-620 13.7 µM | T47D 2.58 µM | TK-10 8.93 µM | UACC-257 12.8 µM

COCN1C(=O)[C@@H]2CCCN2C(=O)c2ccc([N+](=O)[O-])cc21
> 100 µM: HCT-15
inactive: 786-0 > 100 µM | A498 > 100 µM | ACHN > 100 µM | BT-549 > 100 µM | CAKI-1 > 100 µM | HCT-116 > 100 µM | IGROV-1 > 100 µM | MDA-MB-231 > 100 µM | MOLT-4 > 100 µM | NCI/ADR-RES > 100 µM | SF-268 > 100 µM | SK-MEL-5 > 100 µM | SNB-75 > 100 µM | SR 48.4 µM | SW-620 > 100 µM | T47D > 100 µM | TK-10 > 100 µM | UACC-257 > 100 µM | UACC-62 > 100 µM

O=C1C2C3C4C1C1C2[C@H](OCc2ccccc2)C3C1[C@H]4OCc1ccccc1 (stereo not given in full)
22.2 µM: HCT-15
inactive: 786-0 > 100 µM | A498 > 100 µM | ACHN 47.6 µM | BT-549 > 100 µM | CAKI-1 41.7 µM | HCT-116 50.5 µM | IGROV-1 > 100 µM | MDA-MB-231 82 µM | MOLT-4 50.1 µM | NCI/ADR-RES 19.7 µM | SF-268 60.5 µM | SK-MEL-5 36.3 µM | SNB-75 38.9 µM | SR 19.1 µM | SW-620 46 µM | T47D 34.4 µM | TK-10 > 100 µM | UACC-257 33 µM | UACC-62 41.5 µM

[N-]=[N+]=CC(=O)C1CCCN1C(=O)c1ccccc1 (stereo not given)
inactive: 786-0 > 10 µM | A498 > 10 µM | ACHN > 10 µM | BT-549 > 10 µM | CAKI-1 > 10 µM | HCT-116 > 10 µM | IGROV-1 > 10 µM | MDA-MB-231 > 10 µM | MOLT-4 > 10 µM | NCI/ADR-RES > 10 µM | SF-268 > 10 µM | SK-MEL-5 > 10 µM | SR > 10 µM | SW-620 > 10 µM | T47D > 10 µM | TK-10 > 10 µM | UACC-257 > 10 µM | UACC-62 > 10 µM
> 10 µM: HCT-15
active: SNB-75 0.585 µM

COc1ccc(C(OCC2OC(n3ccc(Oc4c(F)c(F)c(F)c(F)c4F)nc3=O)CC2OP(OCCC#N)N(C(C)C)C(C)C)(c2ccccc2)c2ccc(OC)cc2)cc1 (stereo not given)
> 100 µM: HCT-15
inactive: 786-0 > 100 µM | A498 > 100 µM | ACHN > 100 µM | BT-549 > 100 µM | CAKI-1 > 100 µM | HCT-116 > 100 µM | IGROV-1 > 100 µM | MDA-MB-231 > 100 µM | MOLT-4 > 100 µM | NCI/ADR-RES > 100 µM | SF-268 > 100 µM | SK-MEL-5 68.2 µM | SNB-75 > 100 µM | SR > 100 µM | SW-620 > 100 µM | T47D > 100 µM | TK-10 > 100 µM | UACC-257 > 100 µM | UACC-62 > 100 µM

C=C(Cl)[C@@](Cl)(CBr)CC[C@@H](Br)C(C)(C)Cl
active: 786-0 0.0603 µM | A498 0.938 µM | ACHN 0.149 µM | CAKI-1 0.467 µM | HCT-116 0.25 µM | MDA-MB-231 0.211 µM | NCI/ADR-RES 0.522 µM | SF-268 0.251 µM | SNB-75 0.24 µM | SW-620 0.321 µM | T47D 0.153 µM | TK-10 0.269 µM | UACC-257 0.557 µM | UACC-62 0.745 µM
inactive: BT-549 3.66 µM | IGROV-1 11.7 µM | MOLT-4 22.9 µM | SK-MEL-5 2.67 µM | SR 15.4 µM
0.759 µM: HCT-15

CCOC(=O)/C=C/[C@@H](CC)O[Si](C(C)C)(C(C)C)C(C)C
> 100 µM: HCT-15
inactive: 786-0 > 100 µM | A498 > 100 µM | ACHN > 100 µM | BT-549 > 100 µM | CAKI-1 > 100 µM | HCT-116 > 100 µM | IGROV-1 > 100 µM | MDA-MB-231 > 100 µM | MOLT-4 > 100 µM | NCI/ADR-RES > 100 µM | SF-268 > 100 µM | SK-MEL-5 > 100 µM | SNB-75 > 100 µM | SR 74.6 µM | SW-620 > 100 µM | T47D > 100 µM | TK-10 > 100 µM | UACC-257 67.3 µM | UACC-62 > 100 µM

COC(=O)[C@@H]1C[C@H]([Se]c2ccccc2)CN1S(=O)(=O)c1ccc(C)cc1
> 100 µM: HCT-15
inactive: 786-0 > 100 µM | A498 > 100 µM | ACHN > 100 µM | BT-549 98.2 µM | CAKI-1 > 100 µM | HCT-116 67.3 µM | IGROV-1 > 100 µM | MDA-MB-231 > 100 µM | MOLT-4 35.7 µM | NCI/ADR-RES 34.1 µM | SF-268 27.9 µM | SK-MEL-5 45.2 µM | SNB-75 2.87 µM | SR 32.1 µM | SW-620 > 100 µM | T47D 35.7 µM | TK-10 > 100 µM | UACC-257 > 100 µM | UACC-62 > 100 µM

CCN(CC)c1ccc(/C=C(\C#N)c2nc(N)nc(N3N=C(C)CC3(C)C)n2)cc1
inactive: 786-0 13.4 µM | A498 16.2 µM | ACHN 14.7 µM | BT-549 47.4 µM | CAKI-1 15.1 µM | HCT-116 15.9 µM | IGROV-1 7.82 µM | MDA-MB-231 13.6 µM | MOLT-4 10.7 µM | NCI/ADR-RES 15.8 µM | SF-268 15 µM | SK-MEL-5 21.6 µM | SNB-75 10 µM | SR 12.2 µM | SW-620 55.6 µM | T47D 17.2 µM | TK-10 14.8 µM | UACC-257 45.2 µM | UACC-62 30.3 µM
> 59.3 µM: HCT-15

Cc1c2cccc(Sc3ccccc3)c2c2c3c(cccc13)[S+](c1ccccc1)C2 (stereo not given)
10.4 µM: HCT-15
inactive: 786-0 2.98 µM | A498 2.65 µM | ACHN 4.04 µM | BT-549 2.14 µM | CAKI-1 3.19 µM | HCT-116 2.06 µM | IGROV-1 2.34 µM | MDA-MB-231 2.16 µM | MOLT-4 1.65 µM | NCI/ADR-RES 28.6 µM | SF-268 3.13 µM | SNB-75 1.94 µM | SW-620 3.26 µM | TK-10 2.67 µM | UACC-62 1.66 µM
active: SK-MEL-5 0.748 µM | SR 0.838 µM | T47D 0.526 µM | UACC-257 0.594 µM

O=c1[nH]c2ccc(O)cc2o1
inactive: 786-0 > 100 µM | A498 > 100 µM | ACHN > 100 µM | BT-549 > 100 µM | CAKI-1 > 100 µM | HCT-116 > 100 µM | IGROV-1 > 100 µM | MDA-MB-231 > 100 µM | MOLT-4 > 100 µM | NCI/ADR-RES > 100 µM | SF-268 > 100 µM | SK-MEL-5 > 100 µM | SNB-75 42.7 µM | SR > 100 µM | SW-620 > 100 µM | T47D > 100 µM | TK-10 > 100 µM | UACC-257 > 100 µM | UACC-62 > 100 µM
> 100 µM: HCT-15

N#Cc1nc2ccccc2nc1N1CCN(c2ccc([N+](=O)[O-])cc2)CC1
active: MOLT-4 0.106 µM | SR 0.0339 µM
inactive: 786-0 > 100 µM | A498 > 100 µM | ACHN > 100 µM | BT-549 > 100 µM | CAKI-1 > 100 µM | HCT-116 > 100 µM | IGROV-1 > 100 µM | MDA-MB-231 > 100 µM | NCI/ADR-RES > 100 µM | SF-268 > 100 µM | SK-MEL-5 > 100 µM | SNB-75 > 100 µM | SW-620 > 100 µM | T47D > 100 µM | TK-10 > 100 µM | UACC-257 > 100 µM | UACC-62 > 100 µM
> 100 µM: HCT-15

CC(C)=CCc1c2c(c3occ(-c4ccc(O)c(O)c4)c(=O)c3c1O)C=CC(C)(C)O2 [POMIFERIN]
active: MOLT-4 0.553 µM | SR 0.204 µM | SW-620 0.714 µM
inactive: 786-0 1.51 µM | A498 15.3 µM | ACHN 2.39 µM | BT-549 3.46 µM | CAKI-1 1.55 µM | HCT-116 1.85 µM | IGROV-1 2.11 µM | MDA-MB-231 1.39 µM | NCI/ADR-RES 2.18 µM | SF-268 1.87 µM | SK-MEL-5 2.96 µM | SNB-75 3.61 µM | T47D 1.86 µM | TK-10 1.6 µM | UACC-257 1.91 µM | UACC-62 3.85 µM
1.91 µM: HCT-15
